30 molecules from patent publication US6281214A, “Biphenyl derivatives” (Eisai Co., Ltd, priority 1994, dated 2001) can be followed below.

Common to all, as to set-up: species or system SD rats
One assay deals with T1, dopamine D2 receptor (Rattus norvegicus, UniProt P61169).
T1 construct: the receptor fraction prepared from the corpus striatum was molten and suspended; from tissue; host or cells: corpus striatum of SD rats (membrane fraction)
Kind of assay: dopamine D2 receptor binding test ([3H] Spiperone Binding Test). The following applies: 1 nM [3H] Spiperone, rat corpus striatum, room temperature, 60 minutes. An outline of the steps:
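Rat (SD, 6–8 weeks) corpus striatum membranes in 50 mM Krebs-Tris pH 7.4 were incubated with 1 nM [3H]spiperone at room temperature for 60 minutes, with nonspecific binding defined by excess spiperone. IC50 came from probit analysis; Ki was derived using radioligand concentration and Scatchard Kd.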

The target of a further assay is adrenergic α1 receptor. In words: adrenergic α1 receptor binding test ([3H] Prazosin Binding Test). The following applies: 1 nM [3H] Prazosin, rat cortex, room temperature, 60 minutes. In short, it runs like this:
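Rat (SD, 6-8 weeks) cerebral cortex membranes in 50 mM Tris-HCl pH 7.4 incubated with 1 nM [3H]prazosin for 60 min at room temperature; nonspecific binding defined with phentolamine. IC50 by probit method, converted to Ki using radioligand concentration and Scatchard-derived Kd.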

The next assay concerns the target T2, serotonin S2 receptor (Rattus norvegicus, UniProt P14842).
T2 construct: The receptor fraction prepared from the cortex was molten and suspended; from tissue; host or cells: cerebral cortex of SD rats (membrane fraction)
Kind of assay: serotonin S2 receptor binding test ([3H] Ketanserin Binding Test). To be noted: 1 nM [3H] Ketanserin, rat cortex, 37° C., 15 minutes. In short, it runs like this:
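Ki values came from probit IC50s corrected for radioligand concentration and Kd (Scatchard). Binding used 1 nM [3H]ketanserin with SD rat cortex membrane fractions, 15 min at 37 °C in Tris-HCl pH 7.4. Bound radioactivity was measured after GF/B filtration, with methysergide for nonspecific binding.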

Where [1] appears, read: read-out: Ki value, dopamine D2 receptor.

Read-outs that look alike come from different tables or passages of the source. Some results are limits rather than exact numbers.

T2 sequence (P14842 whole entry): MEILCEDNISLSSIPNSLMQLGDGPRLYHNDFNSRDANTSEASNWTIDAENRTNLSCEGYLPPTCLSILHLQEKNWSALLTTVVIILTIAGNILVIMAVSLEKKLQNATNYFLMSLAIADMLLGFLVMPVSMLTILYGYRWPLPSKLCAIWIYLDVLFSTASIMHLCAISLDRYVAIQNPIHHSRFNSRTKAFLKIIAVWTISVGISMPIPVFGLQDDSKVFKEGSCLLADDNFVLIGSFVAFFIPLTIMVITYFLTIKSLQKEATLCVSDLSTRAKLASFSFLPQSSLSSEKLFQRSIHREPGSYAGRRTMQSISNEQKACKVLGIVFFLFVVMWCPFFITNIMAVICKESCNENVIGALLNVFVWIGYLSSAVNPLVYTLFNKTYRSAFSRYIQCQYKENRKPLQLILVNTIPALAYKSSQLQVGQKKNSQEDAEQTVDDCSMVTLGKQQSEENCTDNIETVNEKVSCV
T1 sequence (P61169 whole entry): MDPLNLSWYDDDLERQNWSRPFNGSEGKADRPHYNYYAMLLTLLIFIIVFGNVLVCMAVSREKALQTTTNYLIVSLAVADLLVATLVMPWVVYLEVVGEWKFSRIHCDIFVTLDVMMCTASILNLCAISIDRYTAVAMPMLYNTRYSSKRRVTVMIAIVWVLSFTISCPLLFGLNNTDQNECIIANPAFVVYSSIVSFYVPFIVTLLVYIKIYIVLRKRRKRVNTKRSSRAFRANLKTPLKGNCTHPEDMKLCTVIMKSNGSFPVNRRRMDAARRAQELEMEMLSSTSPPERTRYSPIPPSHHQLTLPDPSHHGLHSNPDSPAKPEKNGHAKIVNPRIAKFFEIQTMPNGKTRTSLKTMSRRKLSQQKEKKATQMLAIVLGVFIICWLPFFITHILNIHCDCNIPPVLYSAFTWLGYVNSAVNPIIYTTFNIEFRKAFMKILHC

In the case of `CCC(F)c1cc(N2CCN(CCc3ccccn3)CC2)cc(-c2ccccc2C)c1Cl` (stereo not drawn) [Example 213, 1-[2-(2-Pyridyl)ethyl]-4-[3-(2-tolyl)-4-chloro-5-(1-fluoropropyl)]phenylpiperazine], the Ki (as a rule, a dissociation constant, usually derived from enzyme kinetics or from competition with a known ligand) on dopamine D2 receptor (setting [1]) was 14.3 nM; at adrenergic α1 receptor, 236 nM; on serotonin S2 receptor, 10.3 nM.

As to `CCOCc1cc(N2CCN(CC)CC2)cc(-c2ccccc2C)c1Cl` [Example 173, 1-Ethyl-4-[3-(2-tolyl)-4-chloro-5-ethoxymethyl]phenylpiperazine], the Ki on dopamine D2 receptor (setting [1]) is 19.2 nM; at adrenergic α1 receptor, greater than 1000 nM; on serotonin S2 receptor, greater than 1000 nM.

Take `CCN1CCN(c2cc(CCCOC)c(OC)c(-c3ccccc3)c2)CC1` [Example 68, 1-Ethyl-4-[3-phenyl-4-methoxy-5-(3-methoxypropyl)]phenylpiperazine]: the Ki amounted to 35.1 nM at dopamine D2 receptor (setting [1]), 195 nM at adrenergic α1 receptor and 32 nM on serotonin S2 receptor.

Turning to `CCS(=O)(=O)Nc1cc(N2CCN(C)CC2)cc(-c2ccccc2C)c1Cl` [Example 28, 1-Methyl-4-[3-(2-tolyl)-4-chloro-5-ethanesulfonylamino]phenylpiperazine], the inhibitory constant (Ki) on dopamine D2 receptor (setting [1]) is 1.6 nM; at adrenergic α1 receptor, 50.8 nM; at serotonin S2 receptor, 5.67 nM.

As to `CCc1cc(N2CCN(CC)CC2)cc(-c2ccccc2)c1OC` [Example 70], the Ki at dopamine D2 receptor (Ki value, dopamine D2 receptor) turned out to be 41.9 nM; on adrenergic α1 receptor it was 322 nM; at serotonin S2 receptor it was 128 nM.

Turning to `CCN1CCN(c2cc(-c3ccccc3)c(OC)c(C(F)Cc3ccncc3)c2)CC1` (stereo not drawn) [Example 121, 1-Ethyl-4-{3-phenyl-4-methoxy-5-[1-fluoro-2-(4-pyridyl)ethyl]}phenylpiperazine], the Ki at dopamine D2 receptor (setting [1]) is 11 nM; at adrenergic α1 receptor it was 308 nM; at serotonin S2 receptor, 168 nM.

For `CCCS(=O)(=O)Nc1cc(N2CCN(CC)CC2)cc(-c2ccc(OC)cc2)c1Cl` [Example 187, 1-Ethyl-4-[3-(4-methoxyphenyl)-4-chloro-5-propanesulfonyamino]phenylpiperazine], the Ki was 0.54 nM at dopamine D2 receptor (setting [1]), 7.8 nM at adrenergic α1 receptor and 38.2 nM on serotonin S2 receptor.

In the case of `CCC(F)c1cc(N2CCN(CCCc3ccncc3)CC2)cc(-c2ccccc2C)c1Cl` (stereo not drawn) [Example 150], the values for the Ki on dopamine D2 receptor (setting [1]), on adrenergic α1 receptor and at serotonin S2 receptor were 7.98 nM, greater than 1000 nM and 97.1 nM, respectively.

In the case of `CCN1CCN(c2cc(C(=O)Cc3ccccc3)c(OC)c(-c3ccccc3)c2)CC1` [Example 92, 1-Ethyl-4-(3-phenyl-4-methoxy-5-phenylacetyl)phenylpiperazine], the results for the Ki on dopamine D2 receptor (setting [1]), at adrenergic α1 receptor and at serotonin S2 receptor were 2.71 nM, 942 nM and 1.14 nM, respectively.

As to `CCN1CCN(c2cc(-c3ccccc3C)c(Cl)c(S(=O)(=O)N3CCCC3)c2)CC1` [Example 141], the Ki is 24.9 nM on dopamine D2 receptor (setting [1]), greater than 1000 nM on adrenergic α1 receptor and 92.7 nM on serotonin S2 receptor.

Consider `CCN1CCN(c2cc(-c3ccccc3)c(OC)c(-c3ccccc3)c2)CC1` [Example 56, 1-Ethyl-4-(3,5-diphenyl-4-methoxy)phenylpiperazine], for which the Ki at dopamine D2 receptor (setting [1]) was found to be 111 nM; at adrenergic α1 receptor, 503 nM; on serotonin S2 receptor, 212 nM.

In the case of `CCCCC(F)c1cc(N2CCN(CC)CC2)cc(-c2ccccc2)c1OC` (stereo not drawn) [Example 48, 1-Ethyl-4-[3-phenyl-4-methoxy-5-(1-fluoropentyl)]phenylpiperazine], the results for the Ki on dopamine D2 receptor (setting [1]), at adrenergic α1 receptor and on serotonin S2 receptor were 25.8 nM, greater than 1000 nM and 4.32 nM, respectively.

For the molecule `CCN1CCN(c2cc(COCc3ccncc3)c(Cl)c(-c3ccccc3C)c2)CC1` [Example 169, 1-Ethyl-4-[3-(2-tolyl)-4-chloro-5-(4-pyridyl)methoxymethyl]phenylpiperazine], the figures for the Ki on dopamine D2 receptor (setting [1]), at adrenergic α1 receptor and on serotonin S2 receptor were 41.8 nM, greater than 1000 nM and 108 nM, respectively.

Consider `CCN1CCN(c2cc(C(=O)c3ccccn3)c(OC)c(-c3ccccc3)c2)CC1` [Example 109, 1-Ethyl-4-[3-phenyl-4-methoxy-5-(2-pyridylcarbonyl)]phenylpiperazine], for which the Ki at dopamine D2 receptor (setting [1]) was greater than 1000 nM; at adrenergic α1 receptor, greater than 1000 nM; at serotonin S2 receptor it was 230 nM.

Consider `CCN1CCN(c2cc(-c3ccc(F)cc3C)c(Cl)c(S(=O)(=O)CC3CC3)c2)CC1` [Example 148, 1-Ethyl-4-{3-[2(4-fluorotolyl)]-4-chloro-5-cyclopropylmethylsulfonyl}phenylpiperazine], for which the Ki on dopamine D2 receptor (setting [1]) is 12.1 nM; at adrenergic α1 receptor, 278 nM; at serotonin S2 receptor, 22.4 nM.

As for `CCCS(=O)(=O)c1cc(N2CCN(C)CC2)cc(-c2ccc(F)cc2)c1OC` [Example 193, 1-Methyl-4-[3-(4-fluorophenyl)-4-methoxy-5-propanesulfonyl]phenylpiperazine], the results for the Ki on dopamine D2 receptor (setting [1]), on adrenergic α1 receptor and at serotonin S2 receptor were 19.3 nM, 585 nM and 1.61 nM, respectively.

For the molecule `CCS(=O)(=O)c1cc(N2CCN(CCc3ccccn3)CC2)cc(-c2ccc(F)cc2)c1OC` [Example 198, 1-[2-(2-Pyridyl)ethyl]-4-[3-(4-fluorophenyl)-4-methoxy-5-ethanesulfonyl]phenylpiperazine], the values for the Ki at dopamine D2 receptor (setting [1]), at adrenergic α1 receptor and at serotonin S2 receptor were 12.1 nM, 62.7 nM and 1.06 nM, respectively.

Take `CCN1CCN(c2cc(CCO)c(OC)c(-c3ccccc3)c2)CC1` [Example 66, 1-Ethyl-4-[3-phenyl-4-methoxy-5-(2-hydroxyethyl)]phenylpiperazine]: the Ki was 18.3 nM at dopamine D2 receptor (setting [1]), 127 nM at adrenergic α1 receptor and 65.9 nM on serotonin S2 receptor.

Regarding `CC[C@H](F)c1cc(N2CCN(CCO)CC2)cc(-c2ccc(F)cc2C)c1Cl` [Example 222], the values for the Ki at dopamine D2 receptor (setting [1]), on adrenergic α1 receptor and at serotonin S2 receptor were 6.5 nM, 1040 nM and 12 nM, respectively.

As to `CCN1CCN(c2cc(-c3ccccc3)c(OC)c(C(O)Cc3ccccc3)c2)CC1` (stereo not drawn) [Example 94, 1-Etyl-4-[3-phenyl-4-methoxy-5-(1-hydroxyphenethyl)]phenylpiperazine], the figures for the Ki on dopamine D2 receptor (setting [1]), at adrenergic α1 receptor and on serotonin S2 receptor were 13.8 nM, 600 nM and 109 nM, respectively.

Turning to `CC[C@@H](F)c1cc(N2CCN(CCO)CC2)cc(-c2ccc(F)cc2C)c1Cl` [Example 223, 1-(2-Hydroxyethyl)-4-{3-[2-(4-fluorotolyl)]-4-chloro-5-[1-(R)-fluoropropyl]}phenylpiperazine], the results for the Ki at dopamine D2 receptor (setting [1]), on adrenergic α1 receptor and at serotonin S2 receptor were 6.61 nM, 1510 nM and 1860 nM, respectively.

In the case of `CCN1CCN(c2cc(NS(=O)(=O)c3ccc(F)cc3)c(Cl)c(-c3ccccc3C)c2)CC1` [Example 137, 1-Ethyl-4-[3-(2-tolyl)-4-chloro-5-(4-fluorophenylsulfonylamino)]phenylpiperazine], the Ki worked out at 0.64 nM at dopamine D2 receptor (setting [1]), 312 nM on adrenergic α1 receptor and 144 nM at serotonin S2 receptor.

Turning to `CCCS(=O)(=O)c1cc(N2CCN(CC)CC2)cc(-c2ccccc2C)c1Cl` [Example 159, 1-Ethyl-4-[3-(2-tolyl)-4-chloro-5-propanesulfonyl]phenylpiperazine], the Ki on dopamine D2 receptor (setting [1]) worked out at 3.93 nM; at adrenergic α1 receptor it was 596 nM; at serotonin S2 receptor, 8.81 nM.

Consider `CCCN1CCN(c2cc(-c3ccccc3C)c(Cl)c(C(F)CC)c2)CC1` (stereo not drawn) [Example 151, 1-Propyl-4-[3-(2-tolyl)-4-chloro-5-(1-fluoropropyl)]phenylpiperazine], for which the figures for the Ki on dopamine D2 receptor (setting [1]), on adrenergic α1 receptor and at serotonin S2 receptor were 3.52 nM, greater than 1000 nM and 27.7 nM, respectively.

In the case of `CC[C@H](F)c1cc(N2CCN(CC)CC2)cc(-c2ccc(F)cc2C)c1Cl` [Example 211, 1-Ethyl-4-{3-[2-(4-fluorotolyl)]-4-chloro-5-[1-(S)-fluoropropnyl]}phenylpiperazine], the Ki was found to be 4.14 nM at dopamine D2 receptor (setting [1]), 1020 nM on adrenergic α1 receptor and 8.81 nM at serotonin S2 receptor.

As to `CCCS(=O)(=O)NCc1cc(N2CCN(CC)CC2)cc(-c2ccccc2C)c1Cl` [Example 192, 1-Ethyl-4-[3-(2-tolyl)-4-chloro-5-propanesulfonylaminomethyl]phenylpiperazine], the Ki at dopamine D2 receptor (setting [1]) is greater than 100 nM; on adrenergic α1 receptor, 550 nM; at serotonin S2 receptor it was 374 nM.

Turning to `CCCC(F)c1cc(N2CCN(C)CC2)cc(-c2ccccc2Cl)c1Cl` (stereo not drawn) [Example 178, 1-Methyl-4-[3-(2-chlorophenyl)-4-chloro-5-(1-fluorobutyl)]phenylpiperazine], the Ki on dopamine D2 receptor (setting [1]) is 7.3 nM; at adrenergic α1 receptor, greater than 1000 nM; at serotonin S2 receptor, 12.2 nM.

With `CCN1CCN(c2ccc(OC(C)C)c(-c3ccccc3)c2)CC1` [Example 61, 1-Ethyl-4-(3-phenyl-4-isopropxy)phenylpiperazine], the Ki on dopamine D2 receptor (setting [1]), on adrenergic α1 receptor and on serotonin S2 receptor was greater than 1000 nM in each case.

Consider `CCOC(=O)CCc1cc(N2CCN(CC)CC2)cc(-c2ccccc2)c1OC` [Example 111, 1-Ethyl-4-[3-phenyl-4-methoxy-5-(2-ethoxycarbonylethyl)]phenylpiperazine], for which the Ki on dopamine D2 receptor (setting [1]) was 41.9 nM; at adrenergic α1 receptor it was 210 nM; on serotonin S2 receptor, 58 nM.

As for `CCCS(=O)(=O)c1cc(N2CCN(CC)CC2)cc(-c2ccccc2)c1OC` [Example 170, 1-Ethyl-4-(3-phenyl-4-methoxy-5-propanesulfonyl)phenylpiperazine], the Ki at dopamine D2 receptor (setting [1]) was 34.2 nM; on adrenergic α1 receptor, greater than 1000 nM; on serotonin S2 receptor, 2.77 nM.
